Here are results for three compounds from patent US8999960B2, “Oxidized thiophospholipid compounds and uses thereof” (Vascular Biogenics Ltd., priority 2008, dated 2015).

The test system of series [1] is Thioglycollate-elicited mouse peritoneal macrophages. Put plainly: In vitro toxicity assay (crystal violet staining, cell numbers). Format: cell-based. The note with it: for Macrophage survival rate: 24 hours incubation, normalized to vehicle, mean ± SD, one of three experiments; for LD50: mouse peritoneal macrophages, 24 hours. The method, then:
Thioglycollate-elicited mouse peritoneal macrophages were washed, counted and seeded (5×10^5 cells per well in 24-well plates) in triplicate wells in medium containing RPMI-1640, L-glutamine, 10% fetal calf serum (FCS) and antibiotics (penicillin/streptomycin). After a recovery period of 24 hours, the tested compound (or controls) was added to the cell medium at doses of 2, 10, 20, 50, 100 or 150 μg/ml, keeping the added volume equal in all treatments by complementing the volume with solvent.
Following addition of the compounds, the cells were incubated for an additional 24 hours, after which the cells were washed, fixed with a solution of 10% methanol/10% acetic acid and stained with crystal violet (0.4% in 20% ethanol). Cell numbers were measured by determining optical density at 595 nm. Cells incubated with vehicle (PBS with 1% ethanol) were used as a control, to which cell numbers in treated samples were normalized. Each experiment was performed three times.

For series [2], the system named is IL12/23p40 production by peptidoglycan-activated BMDCs. Put plainly: In vitro IL12/23p40 assay (ELISA). Format: cell-based, mouse. The note with it: 1 to 20 μg/ml added for 1 hour, then 24 hours with 10 μg/ml peptidoglycan (FIG. 2). As to the method: Bone marrow derived cells (BMDCs) were obtained from the femur and tibia of female C57BL mice. Bone-marrow was flushed out femur and tibia with cold RPMI-1640. A cell suspension was prepared, and erythrocytes were removed using red blood cell (RBC) lysis buffer. […] Cells were then washed, resuspended in the same buffer, and depleted from B and T cells on a Midi-Macs separation unit through a LD or LS column (Miltenyi Biotech). The cells were prepared freshly for each experiment.
The depleted bone marrow cells were counted, washed and seeded at a concentration of 10^6 cells/ml in medium containing RPMI-1640, L-glutamine, β-mercaptoethanol, 10% fetal calf serum (FCS), antibiotics (penicillin/streptomycin) and 20 ng/ml of mouse GM-CSF (granulocyte-macrophage colony-stimulating factor). Medium was replaced every other day. On days 5-6 post culturing, cells were collected, counted and seeded at a concentration of 10^6 cells/ml in the above medium. CI-211 was then added for 1 hour. The cells were activated for IL12/23p40 production by incubation for 24 hours with 10 μg/ml peptidoglycan (PGN). Cytokine production from the supernatant was measured by ELISA. Activated cells without CI-211 were used as the control.
For orientation: In an ELISA, binding on a coated surface is turned into a signal by an enzyme label.

Series [3] relates to phosphotyrosine (p-Tyr) in thioglycollate stimulated mouse macrophages. Kind of series: Tyrosine phosphorylation assay (Western blot, anti-phosphotyrosine antibody). Format: cell-based. The note with it: 20 μg/ml, 10 minutes, Western blot (FIG. 1). The method, then:
Thioglycollate stimulated mouse macrophages were treated for 10 minutes with 20 μg/ml of the tested compound in phosphate buffered saline (PBS) with 1% ethanol. Treatment with either 20 μg/ml of phosphatidylcholine or solvent (PBS with 1% ethanol) was used as a negative control. Treatment with 20 μg/ml CI-201 (1-hexadecyl-2-(4′-carboxy)butyl-sn-glycero-3-phosphothiocholine) was used as a positive control.
Proteins with phosphorylated tyrosine were then observed by Western blot, using a monoclonal anti-phosphotyrosine antibody. Western blotting for ERK1/2 was performed as a control for protein loading.
On the technique in general: A western blot detects proteins with antibodies after separation by electrophoresis.

Series [4] has as its system Thioglycollate-elicited mouse peritoneal macrophages. Kind of series: In vitro toxicity assay (crystal violet staining, cell numbers). Format: cell-based. The following applies: 1, 2.5, 5, 10 or 20 μg/ml.

Where “and” joins values, the source holds several entries; their conditions need not be identical. Identical values can stand only once.

In the case of “1-hexadecyl-2-(4-carboxy)butyl-sn-glycero-3-thiophosphorylcholine [CI-211]”, the Macrophage survival rate in series [1] (2 μg/ml) was 124.7 ± 11.4% and 113.2 ± 7% and 90.4 ± 22.4%; in series [1] (10 μg/ml), 111.6 ± 28.8% and 118.4 ± 4.2% and 127.9 ± 11.5%. Besides, in series [1], the LD50 result is “above 100 μg/ml and > 167 μM”. Moreover, the IL12/23p40 secretion entry in series [2] is listed as “decreased”. In addition, the tyrosine phosphorylation levels result in series [3] is recorded as “reduced”. Also, the “toxicity at the concentrations used in the IL12/23p40 assay” value in series [4] was “non-toxic”.

On to `CCCCCCCCCCCCCCCCOC[C@H](COP(=O)([O-])OCC[N+](C)(C)C)OCCCCC(=O)O` [CI-201, 1-hexadecyl 2 (4 carboxy)butyl-sn-glycero-3-phosphocholine, reference compound], for which the tyrosine phosphorylation levels entry in series [3] is listed as “reduced”.

`CCCCCCCCCCCCCCCCOCC(COP(O)(=S)OCCN)OCCCCC(=O)O` (stereo not drawn) [CI-212, 1-hexadecyl-2-(4-carboxy)butyl-sn-glycero-3-O-thiophosphorylethanolamine]: the Macrophage survival rate was 98.7 ± 10.3% and 77.5 ± 5.5% and 80.8 ± 31% in series [1] (2 μg/ml); 90.6 ± 21.4% and 75.6 ± 9.5% and 97.5 ± 36.4% in series [1] (20 μg/ml); 71.4 ± 11.4% and 55.1 ± 18.9% and 97.1 ± 48.1% in series [1] (50 μg/ml). Further, the LD50 result in series [1] was “above 50 μg/ml and > 90 μM”. Moreover, the tyrosine phosphorylation levels entry in series [3] is “reduced”.
